Laboratory results taken from ChEMBL document CHEMBL3217635, “Pharmacological properties of indolone-N-oxides controlled by a bioreductive transformation in red blood cells?” (Medchemcomm, 2011).
One block for each molecule: values may come before it.

How the values were obtained:
[1] = Metabolic stability in human RBC assessed as retention time of corresponding dihydroanalogue at 7.8 mg/ml by LC-MS analysis; assay type: ADME, cell-based; conditions: erythrocyte
[2] = Metabolic stability in human RBC assessed as retention time at 7.8 mg/ml by LC-MS analysis; assay type: ADME, cell-based; conditions: erythrocyte
Plasmodium falciparum = assay: Antiplasmodial activity against Plasmodium falciparum FcB1; assay type: functional, organism-based
[3] = Half life in mouse liver microsomes; assay type: ADME
[4] = Drug metabolism in human RBC assessed as 1-HH formation after 4 hrs by HPLC-FL analysis; assay type: ADME, cell-based; conditions: erythrocyte
[5] = Selectivity index, ratio of CC50 for human MCF7 cells to IC50 for Plasmodium falciparum FcB1; assay type: functional
[6] = Drug metabolism in human RBC assessed as 1-HH formation at 5 mM at 37 degC after 6 hrs by HPLC-FL analysis; assay type: ADME, cell-based; conditions: erythrocyte, 5000 µM
[7] = Cytotoxicity against human MCF7 cells; assay type: cell-based
[8] = Drug metabolism in healthy human RBC assessed as 1-HH formation after 3 hrs; assay type: ADME, cell-based; conditions: erythrocyte
[9] = Drug metabolism assessed as 1-HH metabolite formation in presence of haemoglobin; assay type: physicochemical
[10] = Metabolic stability in human RBC assessed as increase in extracellular dihydroanalogue metabolite level at 1 mg/ml; assay type: ADME, cell-based; conditions: erythrocyte, TDE = time-dependent effect
[11] = Drug metabolism assessed as 1-HH metabolite formation in presence of ferrous ion; assay type: physicochemical
[12] = Drug metabolism in human phenylhydrazine-treated RBC assessed as 1-HH formation after 3 hrs; assay type: ADME, cell-based; conditions: erythrocyte
[13] = Drug metabolism assessed as 1-HH metabolite formation in presence of human haemoglobin; assay type: ADME
[14] = Drug metabolism assessed as 1-HH metabolite formation after 3 hrs in presence of ghost fraction; assay type: physicochemical
[15] = Drug metabolism in CDNB-treated human RBC assessed as 1-HH formation after 4 hrs by HPLC-FL analysis; assay type: ADME, cell-based; conditions: erythrocyte
[16] = Half life in CD-1 mouse liver microsomes by LC-FL analysis; assay type: ADME
[17] = Drug metabolism assessed as 1-HH metabolite formation in presence of haemin; assay type: physicochemical
[18] = Drug metabolism in human heat-denaturated RBC; assay type: ADME, cell-based; conditions: erythrocyte
[19] = Drug metabolism assessed as 1-HH metabolite formation in presence of haematin; assay type: physicochemical
[20] = Drug metabolism in human RBC assessed as 1-HH formation at 5 mM at 4 degC after 6 hrs by HPLC-FL analysis; assay type: ADME, cell-based; conditions: erythrocyte, 5000 µM
[21] = Drug metabolism in human NEM-treated RBC assessed as 1-HH formation after 4 hrs by HPLC-FL analysis; assay type: ADME, cell-based; conditions: erythrocyte
[22] = Drug metabolism in CD-1 mouse liver microsomes assessed as 1-HH metabolite formation after 10 mins by LC-FL analysis; assay type: ADME
[23] = Drug metabolism in cytoplasm of human RBC assessed as 1-HH metabolite formation after 3 hrs; assay type: ADME; conditions: erythrocytes
[24] = Cellular uptake in human RBC assessed as intracellular level at 1 mg/ml measured immediately; assay type: ADME, cell-based; conditions: erythrocyte
[25] = Drug metabolism assessed as 1-HH metabolite formation after 3 hrs in presence of human haemoglobin; assay type: physicochemical
[26] = Drug metabolism in human beta-thalassemic RBC assessed as 1-HH formation after 3 hrs; assay type: ADME, cell-based; conditions: erythrocyte
[27] = Drug metabolism in human RBC infected with late stage Plasmodium falciparum assessed as 1-HH formation after 3 hrs; assay type: ADME, cell-based; conditions: erythrocyte

Retention_time [1]: 10.4 min
Retention_time [2]: 22.6 min
SMILES: COc1ccc2c(c1)C(=O)C(c1ccc(Cl)c(C)c1)=[N+]2[O-]

Retention_time [1]: 11.2 min
Retention_time [2]: 20.9 min
SMILES: O=C1C(c2ccc(Cl)c(Cl)c2)=[N+]([O-])c2ccccc21

Drug metabolism [4]: Active
Drug metabolism [6]: Active
Drug metabolism [8]: Active
Stability [9]: Stable
Drug metabolism [10]: tde
Stability [11]: Stable
Drug metabolism [12]: Active
Stability [13]: Stable
Stability [14]: Stable
Drug metabolism [15]: Not Active
half-life [16]: < 1 min
Stability [17]: Stable
Stability [18]: Stable
Stability [19]: Stable
Drug metabolism [20]: Active
Drug metabolism [21]: Not Active
Stability [22]: Stable
Retention_time [1]: 9.6 min
Retention_time [2]: 18.2 min
Drug metabolism [23]: Active
Drug uptake [24]: Active
Stability [25]: Stable
Drug metabolism [26]: Active
Drug metabolism [27]: Active
SMILES: O=C1C(c2ccc(Cl)cc2)=[N+]([O-])c2cc3c(cc21)OCO3
Ratio CC50/IC50 [5]: 264
CC50 [7]: 23 µM

Retention_time [1]: 9.9 min
Retention_time [2]: 17.4 min
SMILES: COc1ccc2cc(C3=[N+]([O-])c4ccccc4C3=O)ccc2c1

IC50 (Plasmodium falciparum): 1.03 µM
half-life [16]: 10 min
SMILES: O=C1c2cc3c(cc2NC1(O)c1ccc(Cl)cc1)OCO3 (stereo not drawn)
Ratio CC50/IC50 [5]: 66
CC50 [7]: 68 µM

The remaining lines, values behind:

SMILES: COc1ccc2c(c1)C(=O)C(c1ccc(Oc3ccccc3)cc1)=[N+]2[O-]
Retention_time [1]: 11.3 min
Retention_time [2]: 23.5 min

SMILES: COc1ccc2c(c1)C(=O)C(c1ccc(N(C)C)cc1)=[N+]2[O-]
IC50 (Plasmodium falciparum): 0.003 µM
Retention_time [1]: 8.2 min
Retention_time [2]: 14 min
half-life [3]: 6 min

SMILES: CCN(CC)CCCC(C)Nc1ccnc2cc(Cl)ccc12 (stereo not drawn) [CHLOROQUINE]
CC50 [7]: 19 µM
